In US20140323418A1, “SELECTIVE KINASE INHIBITORS” (PORTOLA PHARMACEUTICALS, INC., priority 2011, published 2014):

target: T1, full length active recombinant SYK enzyme (Homo sapiens, UniProt P43405); experiment: Inhibition of Syk tyrosine phosphorylation activity (LANCE TR-FRET kinase assay); type: biochemical; details: 1 nM SYK, 550 nM substrate, 100 μM ATP, 1 hour room temperature
T1 construct: full length active recombinant SYK enzyme (Millipore, Calif.); purchased Millipore

SMILES | IC50 [nM]
Cc1cccc(Nc2nc(N[C@H]3CN[C@H](C(=O)N(C)C)C3)ncc2C(N)=O)c1 [Example 219, 2-(((3R,5S)-5-(dimethylcarbamoyl)pyrrolidin-3-yl)amino)-4-(m-tolylamino)pyrimidine-5-carboxamide] | > 1000
Cc1cccc(Nc2nc(N[C@@H]3CC[C@H](N)C3)ncc2C(N)=O)c1 [Example 119, 4-(m-toluidino)-2-((1R,3S)-3-aminocyclopentylamino)pyrimidine-5-carboxamide] | 100 to 1000
CCc1c(C)c2c(Nc3nc(N[C@@H]4CCCC[C@@H]4N)ncc3C(N)=O)cccc2n1C [Example 100, 2-((1R,2S)-2-aminocyclohexylamino)-4-(2-ethyl-1,3-dimethyl-1H-indol-4-ylamino)pyrimidine-5-carboxamide] | 100 to 1000
COc1cccc(Nc2nc(N[C@H](CC3CC3)C(N)=O)ncc2C(N)=O)c1 [Example 63, (R)-2-((1-amino-3-cyclopropyl-1-oxopropan-2-yl)amino)-4-((3-methoxyphenyl)amino)pyrimidine-5-carboxamide] | 100 to 1000
NC(=O)c1cnc(N[C@@H]2CCCC(=O)[C@@H]2N)nc1Nc1cccc(-n2nccn2)c1 (racemic) [Example 165] | 100 to 1000
CC(NC1CCCC[C@H]1Nc1ncc(C(N)=O)c(Nc2cccc(-n3nccn3)c2)n1)N[C@H]1CCCC[C@H]1Nc1ncc(C(N)=O)c(Nc2cccc(-n3nccn3)c2)n1 (stereo partly drawn) [Example 15, 2,2′-(1R,1′R,2S,2′S)-2,2′-(ethane-1,1-diylbis(azanediyl))bis(cyclohexane-2,1-diyl)bis(azanediyl)bis(4-(3-(2H-1,2,3-triazol-2-yl)phenylamino)pyrimidine-5-carboxamide)] | 100 to 1000
COc1ccc(Nc2ncc(C(N)=O)c(N[C@H]3CC[C@@H](N)CC3)n2)cc1 [Example 185, 4-(4-aminocyclohexylamino)-2-(4-methoxyphenylamino)pyrimidine-5-carboxamide] | 10 to 100
N#CCN[C@H]1CCCC[C@H]1Nc1ncc(C(N)=O)c(Nc2cccc(-n3nccn3)c2)n1 [Example 11, 4-(3-(2H-1,2,3-triazol-2-yl)phenylamino)-2-((1R,2S)-2-(cyanomethylamino)cyclohexylamino)pyrimidine-5-carboxamide] | 100 to 1000
COc1cncc(Nc2nc(N[C@@H]3CCCC[C@@H]3N)ncc2C(N)=O)c1 [Example 47, 2-(((1R,2S)-2-aminocyclohexyl)amino)-4-((5-methoxypyridin-3-yl)amino)pyrimidine-5-carboxamide] | 10 to 100
NC(=O)c1cnc(N[C@H]2CNC(=O)C2)nc1Nc1cccc(-n2nccn2)c1 [Example 230] | 100 to 1000
NC(=O)c1cnc(Nc2ccc(Cl)cc2)nc1N[C@H]1CC[C@@H](N)CC1 [Example 186, 4-(4-aminocyclohexylamino)-2-(4-chlorophenylamino)pyrimidine-5-carboxamide] | 10 to 100
N#CCN1CC[C@@H](Nc2ncc(C(N)=O)c(Nc3cccc(-n4nccn4)c3)n2)C1 [Example 224] | 100 to 1000
NC(=O)c1cnc(N[C@@H]2CCCC[C@@H]2NC=O)nc1Nc1cccc(-n2nccn2)c1 [Example 10, 4-(3-(2H-1,2,3-triazol-2-yl)phenylamino)-2-((1R,2S)-2-formamidocyclohexylamino)pyrimidine-5-carboxamide] | 100 to 1000

The next lines start with the values.

IC50 [nM] | SMILES
10 to 100 | NC(=O)c1cnc(N[C@@H]2CCOC[C@@H]2N)nc1Nc1cnc2ccccc2c1 [Example 177, 2-((3R,4R)-3-aminotetrahydro-2H-pyran-4-ylamino)-4-(quinolin-3-ylamino)pyrimidine-5-carboxamide]
10 to 100 | NC(=O)c1cnc(N[C@H](C2CC2)C2(N)CC2)nc1Nc1cc(F)cc(F)c1 [Example 157, (R)-2-(1-(1-aminocyclopropyl)(cyclopropyl)methylamino)-4-(3,5-difluorophenylamino)pyrimidine-5-carboxamide]
1 to 10 | CCC(Nc1ncc(C(N)=O)c(Nc2cccc(C)c2)n1)C1(N)CC1 (racemic) [Example 125, (±)-2-(1-(1-aminocyclopropyl)propylamino)-4-(m-tolylamino)pyrimidine-5-carboxamide]
10 to 100 | NC(=O)c1cnc(N[C@@H]2CCCC[C@@H]2N)nc1Nc1ccc(-c2ncco2)cc1 [Example 255, 2-(((1R,2S)-2-aminocyclohexyl)amino)-4-((4-(oxazol-2-yl)phenyl)amino)pyrimidine-5-carboxamide]
10 to 100 | NC(=O)c1cnc(NC[C@@H](N)CC(F)F)nc1Nc1cccc2c1CCN2CC(F)(F)F [Example 97]
10 to 100 | NC(=O)c1cnc(N[C@@H]2CCC[C@H](F)[C@@H]2N)nc1Nc1cccc(-c2ncccn2)c1 [Example 236, 2-((1R,2R,3S)-2-amino-3-fluorocyclohexylamino)-4-(3-(pyrimidin-2-yl)phenylamino)pyrimidine-5-carboxamide]
1 to 10 | Cc1cccc(Nc2nc(N[C@@H]3CC[C@@H](C(=O)O)C[C@@H]3N)ncc2C(N)=O)c1 (racemic) [Example 187, (1R,3S,4R)-3-amino-4-(5-carbamoyl-4-(m-tolylamino)pyrimidin-2-ylamino)cyclohexanecarboxylic acid]
10 to 100 | NC(=O)c1cnc(N[C@@H]2CCOC[C@@H]2N)nc1Nc1cccc(Cl)c1 [Example 50, 2-(((3R,4R)-3-aminotetrahydro-2H-pyran-4-yl)amino)-4-((3-chlorophenyl)amino)pyrimidine-5-carboxamide]
10 to 100 | CN1CCCc2cc(Nc3nc(N[C@H]4CN[C@@H](CO)C4)ncc3C(N)=O)ccc21 [Example 220, 2-(((3R,5R)-5-(hydroxymethyl)pyrrolidin-3-yl)amino)-4-((1-methyl-1,2,3,4-tetrahydroquinolin-6-yl)amino)pyrimidine-5-carboxamide]
10 to 100 | CC[C@@H](Nc1ncc(C(N)=O)c(Nc2ccc3ccncc3c2)n1)C(N)=O [Example 71, (R)-2-(1-amino-1-oxobutan-2-ylamino)-4-(isoquinolin-7-ylamino)pyrimidine-5-carboxamide]
10 to 100 | CCn1ccc2c(Nc3nc(N[C@@H]4CCCC(F)(F)[C@@H]4N)ncc3C(N)=O)cccc21 [Example 92, 2-((1R,2R)-2-amino-3,3-difluorocyclohexylamino)-4-(1-ethyl-1H-indol-4-ylamino)pyrimidine-5-carboxamide]
10 to 100 | Cc1cccc(Nc2nc(NCC(N)CC(F)F)ncc2C(N)=O)c1 (stereo not drawn) [Example 206]
10 to 100 | NC(=O)c1cnc(N[C@H](c2ccccc2)C2(N)CC2)nc1Nc1cccc(-n2nccn2)c1 [Example 149, (R)-4-(3-(2H-1,2,3-triazol-2-yl)phenylamino)-2-(1-(1-aminocyclopropyl)(phenyl)methylamino)pyrimidine-5-carboxamide]
1 to 10 | Cc1cc(Nc2nc(N[C@@H]3CCCC[C@@H]3N)ncc2C(N)=O)sn1 [Example 49, 2-(((1R,2S)-2-aminocyclohexyl)amino)-4-((3-methylisothiazol-5-yl)amino)pyrimidine-5-carboxamide]
1 to 10 | NC(=O)c1cnc(N[C@H](C2CC2)C2(N)CC2)nc1Nc1cnc2ccccc2c1 [Example 152, (R)-2-(1-(1-aminocyclopropyl)(cyclopropyl)methylamino)-4-(quinolin-3-ylamino)pyrimidine-5-carboxamide]
1 to 10 | Cc1csc(Nc2nc(N[C@@H](C(N)=O)C(C)C)ncc2C(N)=O)c1 [Example 195, (R)-2-(1-amino-3-methyl-1-oxobutan-2-ylamino)-4-(4-methylthiophen-2-ylamino)pyrimidine-5-carboxamide]
1 to 10 | NC(=O)c1cnc(N[C@H](C2CC2)C2(N)CC2)nc1Nc1ccc2ncccc2c1 [Example 155, (R)-2-(1-(1-aminocyclopropyl)(cyclopropyl)methylamino)-4-(quinolin-6-ylamino)pyrimidine-5-carboxamide]
